# Literature values as cited in patent US20030073608A1 (priority 2001, published 2003).
# Experiments:
# [1] = test system: substantia nigra dopamine cells (A9); settings: Bymaster et al., Eur. J. Pharmacol. 1998
# [2] = test system: ventral tegmental dopamine cells (A10); settings: limbic-related A10 cells; Bymaster et al., Eur. J. Pharmacol. 1998
smiles,measurement,setting,value
CCCSc1nsnc1[C@H]1CN2CCC[C@H]1C2 [PTAC],antagonism of substantia nigra dopamine cells (A9),[1],does not antagonize
same,antagonism of electrophysiological responses in ventral tegmental dopamine cells (A10),[2],antagonizes electrophysiological responses
